# Data reported in publication PMC10338470, “Phase 1 study of GSK3368715, a type I PRMT inhibitor, in patients with advanced solid tumors” (British Journal of Cancer, 2023).
# How the values were obtained:
# [1] = test system: acute myeloid leukemia (AML) cell lines; parameters: method as in PMID 31257072; settings: acute myeloid leukemia (AML) cell lines ref [6]; cited from earlier work
# [2] = Plasma pharmacokinetics (LC-MS-MS, noncompartmental analysis); type: in vivo, human; settings: for AUC0-24, geometric mean (%CVb) / Cmax, geometric mean (%CVb) / t1/2, geometric mean (%CVb) / tmax, median (range): plasma
# Experimental: In both the dose-escalation and PK/PD cohorts, plasma samples for PK analysis were obtained following dosing on day 1 and pre- and postdose on days 2, 3, 4, 8, 15, 16, 22, and predose every 4 weeks thereafter. Plasma concentrations for GSK3368715 and its metabolites (GSK3963583, GSK3983164, and GSK3510519) were quantified using a validated ultra high-performance liquid chromatography-mass spectrometry-mass spectrometry (LC-MS-MS) method. PK parameters were analyzed using noncompartmental methods.
# (§1) Adverse events and DLTs were summarized descriptively by dose cohort. Pharmacokinetic parameters of GSK3368715 and its metabolites (GSK3963583 and GSK3983164) were estimated in the PK/PD population (all participants for whom a PK sample was obtained) using a noncompartmental analysis model (WinNonlin version 8.1) and summarized descriptively. Best overall response as per RECIST 1.1 was summarized descriptively by dose cohort. Levels of tumor cell and plasma pharmacodynamic biomarkers were also summarized descriptively.
# [3] = in vivo; cited from earlier work
# [4] = test system: ADMA-R225-hnRNP-A1 in PBMCs; experiment: ADMA-R225-hnRNP-A1 in PBMCs (LC-MS), target engagement; type: in vivo, human
# Experimental: Tumor cell and plasma target engagement PD biomarkers were assessed in the dose-escalation cohort on days 1, 8, 15, and 22. In the PK/PD cohort, urine for PK and metabolite profiling was collected postdose on day 1 and through 48 h postdose on day 2, and for 24 h postdose on day 15. Participants underwent an on-treatment tumor biopsy on day 15. Asymmetric arginine 225 (R225) methylation of heterogeneous nuclear ribonucleoprotein A1 (hnRNP-A1) was identified as a target engagement PD of type I PRMT inhibition; treatment with GSK3368715 results in the reduction of asymmetric dimethylarginine 225 (ADMA-R225) on hnRNP-A1 protein in cancer cell lines and peripheral blood mononuclear cells (PBMCs). Noto et al. describe in detail the identification of hnRNP-A1 as a pharmacodynamic biomarker of type I PRMT inhibition, and the development of novel methodologies to accurately and precisely quantitate changes in the levels of ADMA on hnRNP-A1 in both blood and tumor compartments. Levels of ADMA-R225-hnRNP-A1 were measured in fresh frozen and formalin-fixed paired biopsies by liquid chromatography-mass spectrometry (LC-MS) and immunohistochemistry (IHC).
# To measure the ADMA-R225-hnRNP-A1 in the PBMCs, blood was collected using the standard technique for BD Vacutainer® Evacuated Blood Collection Tubes. The PBMC aspirate prepared was used for the ADMA analyses as previously described by the LC-MS method.
# [5] = Safety margins of starting dose from toxicity studies in dogs; type: in vivo; settings: 50 mg starting dose
# protein SDMA = experiment: Protein SDMA in formalin-fixed paired tumor biopsies; type: in vivo, human
# [6] = test system: advanced-stage solid tumors; experiment: Best overall response per RECIST 1.1; type: in vivo, human
# Experimental: as §1, with “Adverse events were coded using the standard MedDRA groupings and graded according to NCI-CTCAE version 5.0. Clinical chemistry, urinalysis, and coagulation tests were performed predose on days 1, 8, 15, 22, and weekly thereafter. Tumor imaging occurred every 8 weeks until week 33, and then every 16 weeks thereafter. Adverse” for “Adverse”
# global ADMA levels = test system: global ADMA levels; parameters: method as in PMID 31257072; settings: preclinical cancer models ref [6]; cited from earlier work
# [7] = GSK3368715 50-mg dose escalation cohort, Day 1
# [8] = GSK3368715 50-mg dose escalation cohort, Day 15
# [9] = GSK3368715 100-mg PK/PD cohort, Day 1
# [10] = GSK3368715 100-mg PK/PD cohort, Day 15
# [11] = GSK3368715 100-mg dose escalation cohort, Day 1
# [12] = GSK3368715 100-mg dose escalation cohort, Day 15
# [13] = GSK3368715 100-mg total, Day 15
smiles,measurement,setting,value
CCOCC1(COCC)CCC(c2[nH]ncc2CN(C)CCNC)CC1 [GSK3368715],Cell lines with cytotoxic responses,[1],50%
same,Increase of Cmax and AUC0−24 with dose,[2]; dose range studied (50-200 mg),dose proportional
same,PK variability (%CVb),[2]; in vivo,high PK variability
same,"AUC0-24, geometric mean (%CVb)","[2]; GSK3368715 200 mg, Day 1",1274.7 (43.8) h•ng/mL
same,"Cmax, geometric mean (%CVb)","[2]; GSK3368715 200 mg, Day 1",336.8 (72.6) ng/mL
same,"t1/2, geometric mean (%CVb)","[2]; GSK3368715 200 mg, Day 1",15.9 h
same,"tmax, median (range)","[2]; GSK3368715 200 mg, Day 1","1.1 (0.4, 3.1) h"
same,"AUC0-24, geometric mean (%CVb)","[2]; GSK3368715 200 mg, Day 15",4861.4 (45.3) h•ng/mL
same,"Cmax, geometric mean (%CVb)","[2]; GSK3368715 200 mg, Day 15",729.2 (42.8) ng/mL
same,"t1/2, geometric mean (%CVb)","[2]; GSK3368715 200 mg, Day 15",2.9 (43.5) h
same,"tmax, median (range)","[2]; GSK3368715 200 mg, Day 15","1.0 (0.5, 3.1) h"
same,"AUC0-24, geometric mean (%CVb)",[2]; [7],259.5 (--) h•ng/mL
same,"Cmax, geometric mean (%CVb)",[2]; [7],107.2 (48.8) ng/mL
same,"tmax, median (range)",[2]; [7],"0.28 (0.25, 1.1) h"
same,"AUC0-24, geometric mean (%CVb)",[2]; [8],581.9 (101.4) h•ng/mL
same,"Cmax, geometric mean (%CVb)",[2]; [8],111.9 (48.5) ng/mL
same,"tmax, median (range)",[2]; [8],"3.0 (0.5, 3.1) h"
same,"AUC0-24, geometric mean (%CVb)",[2]; [9],937.6 (30.9) h•ng/mL
same,"Cmax, geometric mean (%CVb)",[2]; [9],237.6 (62.3) ng/mL
same,"t1/2, geometric mean (%CVb)",[2]; [9],8.8 (--) h
same,"tmax, median (range)",[2]; [9],"0.5 (0.3, 3.1) h"
same,"AUC0-24, geometric mean (%CVb)",[2]; [10],1628.8 (60.4) h•ng/mL
same,"Cmax, geometric mean (%CVb)",[2]; [10],382.7 (67.4) ng/mL
same,"t1/2, geometric mean (%CVb)",[2]; [10],1.4 (--) h
same,"tmax, median (range)",[2]; [10],"1.0 (0.5, 2.1) h"
same,"AUC0-24, geometric mean (%CVb)",[2]; [11],1020.7 (26.7) h•ng/mL
same,"Cmax, geometric mean (%CVb)",[2]; [11],145.0 (207.3) ng/mL
same,"t1/2, geometric mean (%CVb)",[2]; [11],7.2 (--) h
same,"tmax, median (range)",[2]; [11],"0.5 (0.3, 3.1) h"
same,"AUC0-24, geometric mean (%CVb)",[2]; [12],1479.6 (79.7) h•ng/mL
same,"Cmax, geometric mean (%CVb)",[2]; [12],362.9 (115.9) ng/mL
same,"t1/2, geometric mean (%CVb)",[2]; [12],1.8 (--) h
same,"tmax, median (range)",[2]; [12],"0.9 (0.5, 1.1) h"
same,"AUC0-24, geometric mean (%CVb)","[2]; GSK3368715 100-mg total, Day 1",972.3 (27.1) h•ng/mL
same,"Cmax, geometric mean (%CVb)","[2]; GSK3368715 100-mg total, Day 1",197.4 (112.1) ng/mL
same,"t1/2, geometric mean (%CVb)","[2]; GSK3368715 100-mg total, Day 1",7.9 h
same,"tmax, median (range)","[2]; GSK3368715 100-mg total, Day 1","0.5 (0.3, 3.1) h"
same,"AUC0-24, geometric mean (%CVb)",[2]; [13],1573.8 (64.2) h•ng/mL
same,"Cmax, geometric mean (%CVb)",[2]; [13],375.5 (79.9) ng/mL
same,"t1/2, geometric mean (%CVb)",[2]; [13],1.6 (15.6) h
same,"tmax, median (range)",[2]; [13],"0.9 (0.5, 2.1) h"
same,TEEs reported in preclinical models,[3],no TEEs
same,"Reduction of ADMA-R225-hnRNP-A1 in PBMCs, mean (SE 5.81%)","[4]; 100 mg, day 15",43.1%
same,"Reduction of ADMA-R225-hnRNP-A1 in PBMCs, mean (SE 6.92%)","[4]; 200-mg dose group, day 15",54.7%
same,Target engagement in the blood,[4]; in vivo,observed
same,Safety margin for the steady state AUC,[5],16 fold
same,Safety margin for the steady state Cmax,[5],33 fold
same,Patients with increased protein SDMA in formalin-fixed paired biopsies,protein SDMA; 7/8 patients,88%
same,Median increase of protein SDMA in formalin-fixed paired biopsies,protein SDMA; range −28 to 155%,48.9%
same,Best response: Complete response,[6]; 50 mg (n = 3),0 n (%)
same,Best response: Missing,[6]; 50 mg (n = 3),0 n (%)
same,Best response: Not evaluable,[6]; 50 mg (n = 3),1 (33) n (%)
same,Best response: Partial response,[6]; 50 mg (n = 3),0 n (%)
same,Best response: Progressive disease,[6]; 50 mg (n = 3),2 (67) n (%)
same,Best response: Stable disease,[6]; 50 mg (n = 3),0 n (%)
same,Overall response rate: Complete response + partial response,[6]; 50 mg (n = 3),0 n (%)
same,Best response: Complete response,[6]; 100 mg (n = 16),0 n (%)
same,Best response: Missing,[6]; 100 mg (n = 16),0 n (%)
same,Best response: Not evaluable,[6]; 100 mg (n = 16),0 n (%)
same,Best response: Partial response,[6]; 100 mg (n = 16),0 n (%)
same,Best response: Progressive disease,[6]; 100 mg (n = 16),10 (63) n (%)
same,Best response: Stable disease,[6]; 100 mg (n = 16),6 (38) n (%)
same,Overall response rate: Complete response + partial response,[6]; 100 mg (n = 16),0 n (%)
same,Best response: Complete response,[6]; 200 mg (n = 12),0 n (%)
same,Best response: Missing,[6]; 200 mg (n = 12),3 (25) n (%)
same,Best response: Not evaluable,[6]; 200 mg (n = 12),0 n (%)
same,Best response: Partial response,[6]; 200 mg (n = 12),0 n (%)
same,Best response: Progressive disease,[6]; 200 mg (n = 12),6 (50) n (%)
same,Best response: Stable disease,[6]; 200 mg (n = 12),3 (25) n (%)
same,Overall response rate: Complete response + partial response,[6]; 200 mg (n = 12),0 n (%)
same,Patients with stable disease among patients with MTAP gene deletion,[6]; 6 patients with MTAP gene deletion,2
same,Patients with progressive disease among patients with MTAP gene deletion,"[6]; 6 patients with MTAP gene deletion, treatment exposure 15 days to 37 days",4
same,Best response: Complete response,[6]; Total (N = 31),0 n (%)
same,Best response: Missing,[6]; Total (N = 31),3 (10) n (%)
same,Best response: Not evaluable,[6]; Total (N = 31),1 (3) n (%)
same,Best response: Partial response,[6]; Total (N = 31),0 n (%)
same,Best response: Progressive disease,[6]; Total (N = 31),18 (58) n (%)
same,Best response: Stable disease,[6]; Total (N = 31),9 (29) n (%)
same,"Disease stability, patients",[6]; all dose groups,29%
same,Time of maximal decreases in global ADMA levels,global ADMA levels,72 h
